{"source": "paper PMC6230509", "about": "(Neuropharmacology, 2018)", "key": {"5-HT2A receptor": {"biological_target": "5-HT2A receptor", "conditions": "read-out: Ki vs. [3H]ketanserin, ref Stevenson et al. 2000; cited from earlier work"}, "rat 5-HT2A receptor": {"biological_target": "rat 5-HT2A receptor", "conditions": "read-out: Ki, rat 5-HT2A receptor; [3H]ketanserin; ref Gallaher et al. (1993); cited from earlier work"}, "[1]": {"test_system": "5-MeO-DMT discriminative stimulus", "conditions": "ref Glennon et al. 1980a; cited from earlier work"}, "[2]": {"test_system": "head twitch response (5-HT2A receptor-mediated)", "assay": "Head twitch response", "format": "in vivo, C57BL/6J mice", "conditions": "for activity in the HTR assay (in words): C57BL/6J mice, within the dose range tested; for ED50: Mus musculus, ip"}, "[3]": {"conditions": "humans, ref Shulgin and Shulgin 2004, cited from earlier work"}, "[4]": {"test_system": "recombinant human 5-HT2A receptors", "conditions": "ref Arunotayanun et al. 2013; cited from earlier work"}, "[5]": {"test_system": "DOM discriminative stimulus", "conditions": "ref Gatch et al. 2017; cited from earlier work"}, "[6]": {"conditions": "0.875 mg/kg IP, duration 30 min"}, "[7]": {"conditions": "HTR, IP, male C57BL/6J mice, analysis block 5–30 min depending on drug"}, "[8]": {"conditions": "read-out: ED50 (95% CI) (mg/kg)"}, "[9]": {"conditions": "read-out: ED50 (95% CI) (μmol/kg)"}}, "note": "Like-named read-outs stand apart in the source and are kept apart here.", "data": [{"smiles": "CCN(CC)CCc1c(-c2ccccc2)[nH]c2ccccc12", "note": "[2-phenyl-N,N-diethyltryptamine]", "values": [{"measurement": "Ki", "setting": "5-HT2A receptor", "result": 2.8, "unit": "nM"}]}, {"smiles": "CN(C)CCc1c[nH]c2ccc(O)cc12", "note": "[bufotenine]", "values": [{"measurement": "Ki", "setting": "rat 5-HT2A receptor", "result": 520, "unit": "nM"}]}, {"smiles": "CCc1cccc2c(CCN(C)C)c[nH]c12", "note": "[7-Ethyl-DMT]", "values": [{"measurement": "substitution in rats trained to discriminate 5-MeO-DMT from vehicle", "setting": "[1]", "result": "partial substitution"}]}, {"smiles": "CN(C)CCc1c(-c2ccccc2)[nH]c2ccccc12", "note": "[2-phenyl-N,N-dimethyltryptamine]", "values": [{"measurement": "Ki", "setting": "5-HT2A receptor", "result": 4.4, "unit": "nM"}]}, {"smiles": "C=CCN(CC=C)CCc1c[nH]c2ccccc12", "note": "[DALT, N,N-diallyltryptamine]", "values": [{"measurement": "HTR Counts (mean ± SEM)", "setting": "[2]; [6]", "result": "8.2 ± 2.8"}, {"measurement": "HTR Counts (mean ± SEM)", "setting": "[2]; 1.75 mg/kg IP, duration 30 min", "result": "6.8 ± 2.6"}, {"measurement": "HTR Counts (mean ± SEM)", "setting": "[2]; 3.5 mg/kg IP, duration 30 min", "result": "14.2 ± 4.3"}, {"measurement": "HTR Counts (mean ± SEM)", "setting": "[2]; 7 mg/kg IP, duration 30 min", "result": "21.8 ± 4.4"}, {"measurement": "HTR Counts (mean ± SEM)", "setting": "[2]; 14 mg/kg IP, duration 30 min", "result": "20.6 ± 2.7"}, {"measurement": "activity in the HTR assay (in words)", "setting": "[2]; IP", "result": "active"}, {"measurement": "ED50 (95% CI) (mg/kg)", "setting": "[2]; [7]", "result": "3.42 (2.44–4.79) mg/kg"}, {"measurement": "ED50 (95% CI) (μmol/kg)", "setting": "[2]; [7]", "result": "12.3 (8.8–17.3) μmol/kg"}]}, {"smiles": "CN(C)CCc1c[nH]c2cccc(O)c12", "note": "[psilocin, 4-hydroxy-DMT]", "values": [{"measurement": "Ki", "setting": "rat 5-HT2A receptor", "result": 5100, "unit": "nM"}]}, {"smiles": "C=CCN(CC=C)CCc1c[nH]c2ccc(Br)cc12", "note": "[5-Br-DALT, 5-bromo-N,N-diallyltryptamine]", "values": [{"measurement": "HTR Counts (mean ± SEM)", "setting": "[2]; 3.5 mg/kg IP, duration 30 min", "result": "5.0 ± 0.3"}, {"measurement": "HTR Counts (mean ± SEM)", "setting": "[2]; 7 mg/kg IP, duration 30 min", "result": "10.8 ± 2.7"}, {"measurement": "HTR Counts (mean ± SEM)", "setting": "[2]; 14 mg/kg IP, duration 30 min", "result": "8.6 ± 2.7"}, {"measurement": "HTR Counts (mean ± SEM)", "setting": "[2]; 28 mg/kg IP, duration 30 min", "result": "1.4 ± 0.4"}, {"measurement": "HTR Counts (mean ± SEM)", "setting": "[2]; 56 mg/kg IP, duration 30 min", "result": "1.4 ± 1.4"}, {"measurement": "activity in the HTR assay (in words)", "setting": "[2]; IP", "result": "active"}, {"measurement": "ED50", "setting": "[2]; [8]", "result": 4.8, "unit": "mg/kg"}, {"measurement": "ED50", "setting": "[2]; [9]", "result": 13.5, "unit": "µmol/kg"}]}, {"smiles": "C=CCN(CC=C)CCc1c[nH]c2ccc(F)cc12", "note": "[5-F-DALT, 5-fluoro-N,N-diallyltryptamine]", "values": [{"measurement": "HTR Counts (mean ± SEM)", "setting": "[2]; [6]", "result": "9.8 ± 2.6"}, {"measurement": "HTR Counts (mean ± SEM)", "setting": "[2]; 1.75 mg/kg IP, duration 30 min", "result": "21.0 ± 5.7"}, {"measurement": "HTR Counts (mean ± SEM)", "setting": "[2]; 3.5 mg/kg IP, duration 30 min", "result": "36.0 ± 6.8"}, {"measurement": "HTR Counts (mean ± SEM)", "setting": "[2]; 7 mg/kg IP, duration 30 min", "result": "26.8 ± 7.1"}, {"measurement": "HTR Counts (mean ± SEM)", "setting": "[2]; 14 mg/kg IP, duration 30 min", "result": "21.0 ± 4.0"}, {"measurement": "activity in the HTR assay (in words)", "setting": "[2]; IP", "result": "active"}, {"measurement": "ED50", "setting": "[2]; [8]", "result": 1.58, "unit": "mg/kg"}, {"measurement": "ED50", "setting": "[2]; [9]", "result": 5.4, "unit": "µmol/kg"}]}, {"smiles": "C=CCN(CC=C)CCc1c[nH]c2ccc(OC)cc12", "note": "[5-MeO-DALT, 5-methoxy-N,N-diallyltryptamine]", "values": [{"measurement": "duration of psychoactive effects", "setting": "[3]; oral 12–20 mg", "result": "2 to 4", "unit": "h"}, {"measurement": "oral doses producing psychoactive effects", "setting": "[3]; oral", "result": "12 to 20", "unit": "mg"}, {"measurement": "functional activity at recombinant human 5-HT2A receptors", "setting": "[4]", "result": "agonist"}, {"measurement": "HTR Counts (mean ± SEM)", "setting": "[2]; 1.75 mg/kg IP, duration 20 min", "result": "6.6 ± 1.0"}, {"measurement": "HTR Counts (mean ± SEM)", "setting": "[2]; 3.5 mg/kg IP, duration 20 min", "result": "19.8 ± 1.5"}, {"measurement": "HTR Counts (mean ± SEM)", "setting": "[2]; 7 mg/kg IP, duration 20 min", "result": "8.8 ± 2.6"}, {"measurement": "HTR Counts (mean ± SEM)", "setting": "[2]; 14 mg/kg IP, duration 20 min", "result": "8.0 ± 4.9"}, {"measurement": "activity in the HTR assay (in words)", "setting": "[2]; IP", "result": "active"}, {"measurement": "ED50", "setting": "[2]; [8]", "result": 2.25, "unit": "mg/kg"}, {"measurement": "ED50", "setting": "[2]; [9]", "result": 7.3, "unit": "µmol/kg"}, {"measurement": "substitution in rats trained to discriminate DOM", "setting": "[5]", "result": "full substitution"}]}]}
